Data reported in PubChem BioAssay AID2060502 (Molecular Pharmacology Branch, DTP, NCI, 2025).

Test system: 885724-159-R-J1-PDC complex spheroid viability
Experiment: Anticancer human tumor 885724-159-R-J1-PDC patient-derived pancreatic adenocarcinoma cell line growth inhibition [GQUAD]
Conditions: for IC50: curve of first compound; for viability, T/C: stronger effect = lower value
Excerpt: DNA G-quadruplex Stabilizer Agents in Combinations in Complex Spheroids
A high-throughput screen of multi-cell type tumor spheroids was designed to identify active combinations of DNA G-quadruplex stabilizer agents and targeted small molecules. Complex spheroids include a stromal component modeled by human endothelial cells (HUVEC) and fibroblasts modeled by human mesenchymal stem cells (MSCs). The concentration ranges selected for each drug and investigational agent were based upon clinically achievable concentrations if the clinical Cmax of the agent was known.
Compounds. The drugs and investigational agents: pidnarulex (CX-5461; NSC782164), APTO-253 (NSC789042), BRACO-19 (NSC847499), peposertib (NSC802822), ceralasertib (NSC780249), elimusertib (NSC800525), camonsertib (NSC841442), AZD-1390 (NSC803789), olaparib (NSC753686), talazoparib (NSC767125), ART-558 (NSC835418), sotorasib (NSC818433), MRTX-1133 (NSC836407), SN-38 (NSC673596), topotecan (NSC609699), etoposide (NSC141540), doxorubicin (NSC123127), gemcitabine (NSC613327), 5-fluorouracil (NSC19893), paclitaxel (NSC125973), vemurafenib (NSC761431), panobinostat (NSC761190), R-306465 (JNJ-16241199; NSC773264), adavosertib (NSC754352), TP-3654 (NSC805149), carboplatin (NSC241240), KSQ-4279 (NSC840948), and staurosporine (NSC755774) were obtained from the National Cancer Institute (NCI) Developmental Therapeutics Program Chemical Repository (34). The FDA-approved anticancer drug set is available from the NCI Developmental Therapeutics Program. […] The stock solutions were prepared in dimethyl sulfoxide (DMSO, Sigma-Aldrich, St. Louis, MO, cat. D2650) at 800-fold the tested concentration and stored at -70 degrees C prior to their use. All drugs and investigational agents were tested over a range starting from a high concentration at or near the clinical Cmax and decreasing in half-log increments. If the clinical Cmax for an agent had not been determined, the highest concentration tested was 10 microM.
2.3 Cell Culture. All cells were maintained in an incubator at 37 degrees C and 5% CO2 with 95% humidity. The PDC lines were cultured according to standard operating procedures established by the NCI PDMR. All PDCs were thawed and cultured in Matrigel-coated flasks prepared with a working solution of 1X Ham's F-12 nutrient mix, without supplementation (Invitrogen, cat. 11765054), 100 U/mL penicillin-streptomycin (Invitrogen, cat. 15140122), and 2.5% Matrigel (Corning Inc., cat. 354248) for the first three passages. The 857933-349-R-J2-PDC line was cultured in 6C/Colon 1B media, which includes advanced DMEM/F-12 (Thermo Fisher Scientific, cat. 12634028), 10 mM HEPES (Thermo Fisher Scientific, cat. 15630080), 1X GlutaMAX supplement (Thermo Fisher Scientific, cat. 35050061), 0.1 mg/mL primocin (InvivoGen, cat. ant-pm-2), 10% defined fetal bovine serum, heat inactivated (HyClone Laboratories Inc., cat. SH30070.03HI), 50% L-WRN conditioned media (ATCC, cat. CRL-3276), 1.25 mM N-Acetyl-L-cysteine (Sigma-Aldrich, cat. A9165), 10 mM nicotinamide (Sigma-Aldrich, cat. N0636), 1X B-27 supplement (Thermo Fisher Scientific, cat. 17504044), 1X N-2 supplement (Thermo Fisher Scientific, cat. 17502048), 10 microM Y-27632 dihydrochloride (Tocris Bioscience, cat. 1254), and 50 ng/mL human EGF recombinant protein (Thermo Fisher Scientific, cat. PHG0311). The 485176-168-R4-J1-PDC line was cultured in Panc media, which includes all 6C/Colon 1B media components plus 100 ng/mL human FGF-10 (Thermo Fisher Scientific, cat. 100-26), 500 nM SB-431542 (Selleckchem, cat. S1067), and gastrin (Tocris, cat. 3006).
[…]

[1] = second compound 0.0316 µM, first compound 0.0316 µM
[2] = second compound 0.0316 µM, first compound 0.1 µM
[3] = second compound 0.0316 µM, first compound 0.316 µM
[4] = second compound 0.0316 µM, first compound 1 µM
[5] = second compound 0.0316 µM, first compound 3.16 µM
[6] = second compound 0.0316 µM, first compound 10 µM
[7] = second compound 0.1 µM, first compound 0.0316 µM
[8] = second compound 0.1 µM, first compound 0.1 µM
[9] = second compound 0.1 µM, first compound 0.316 µM
[10] = second compound 0.1 µM, first compound 1 µM
[11] = second compound 0.1 µM, first compound 3.16 µM
[12] = second compound 0.1 µM, first compound 10 µM
[13] = second compound 0.316 µM, first compound 0.0316 µM
[14] = second compound 0.316 µM, first compound 0.1 µM
[15] = second compound 0.316 µM, first compound 0.316 µM
[16] = second compound 0.316 µM, first compound 1 µM
[17] = second compound 0.316 µM, first compound 3.16 µM
[18] = second compound 0.316 µM, first compound 10 µM
[19] = second compound 1 µM, first compound 0.0316 µM
[20] = second compound 1 µM, first compound 0.1 µM
[21] = second compound 1 µM, first compound 0.316 µM
[22] = second compound 1 µM, first compound 1 µM
[23] = second compound 1 µM, first compound 3.16 µM
[24] = second compound 1 µM, first compound 10 µM
[25] = second compound 3.16 µM, first compound 0.0316 µM
[26] = second compound 3.16 µM, first compound 0.1 µM
[27] = second compound 3.16 µM, first compound 0.316 µM
[28] = second compound 3.16 µM, first compound 1 µM
[29] = second compound 3.16 µM, first compound 3.16 µM
[30] = second compound 3.16 µM, first compound 10 µM
[31] = second compound 10 µM, first compound 0.0316 µM
[32] = second compound 10 µM, first compound 0.1 µM
[33] = second compound 10 µM, first compound 0.316 µM
[34] = second compound 10 µM, first compound 1 µM
[35] = second compound 10 µM, first compound 3.16 µM
[36] = second compound 10 µM, first compound 10 µM
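Note: spheroids exposed to agents for seven days before readout.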
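Throughout, for viability, T/C: percent of vehicle control viability where 100% = DMSO wells.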

## CC1COCCN1c1cc(C2(S(C)(=N)=O)CC2)nc(-c2ccnc3[nH]ccc23)n1 (centres undefined) + Cc1[nH]c2ccc(F)cc2c1-c1nc2c3cccnc3c3ncccc3c2[nH]1
Second compound 0.0316 µM
  IC50: > 10 µM
Second compound 0.1 µM
  IC50: > 10 µM
Second compound 0.316 µM
  IC50: > 10 µM
Second compound 1 µM
  IC50: > 10 µM
Second compound 3.16 µM
  IC50: 0.137 µM
Second compound 10 µM
  IC50: > 10 µM
[1]
  viability, T/C: 105%
[2]
  viability, T/C: 113%
[3]
  viability, T/C: 103%
[4]
  viability, T/C: 90.3%
[5]
  viability, T/C: 95.7%
[6]
  viability, T/C: 76.2%
[7]
  viability, T/C: 110%
[8]
  viability, T/C: 103%
[9]
  viability, T/C: 95.7%
[10]
  viability, T/C: 103%
[11]
  viability, T/C: 77.2%
[12]
  viability, T/C: 68.1%
[13]
  viability, T/C: 90.3%
[14]
  viability, T/C: 99.9%
[15]
  viability, T/C: 93.6%
[16]
  viability, T/C: 93.6%
[17]
  viability, T/C: 92.4%
[18]
  viability, T/C: 67.6%
[19]
  viability, T/C: 81.8%
[20]
  viability, T/C: 72.5%
[21]
  viability, T/C: 78.8%
[22]
  viability, T/C: 68.7%
[23]
  viability, T/C: 66.6%
[24]
  viability, T/C: 64.1%
[25]
  viability, T/C: 62.5%
[26]
  viability, T/C: 43.8%
[27]
  viability, T/C: 56%
[28]
  viability, T/C: 36.3%
[29]
  viability, T/C: 48.3%
[30]
  viability, T/C: 36%
[31]
  viability, T/C: 68.1%
[32]
  viability, T/C: 77.2%
[33]
  viability, T/C: 67.5%
[34]
  viability, T/C: 74.3%
[35]
  viability, T/C: 61.1%
[36]
  viability, T/C: 54.7%

## COc1ccc([C@@H](O)c2cc(-c3ncnc4cc(N5CCOCC5)ccc34)c(F)cc2Cl)nn1 + Cc1[nH]c2ccc(F)cc2c1-c1nc2c3cccnc3c3ncccc3c2[nH]1
Second compound 0.0316 µM
  IC50: 6.88 µM
Second compound 0.1 µM
  IC50: 5.43 µM
Second compound 0.316 µM
  IC50: 5.28 µM
Second compound 1 µM
  IC50: 3.28 µM
Second compound 3.16 µM
  IC50: < 0.0316 µM
Second compound 10 µM
  IC50: 3.51 µM
[1]
  viability, T/C: 101%
[2]
  viability, T/C: 110%
[3]
  viability, T/C: 108%
[4]
  viability, T/C: 94%
[5]
  viability, T/C: 68.5%
[6]
  viability, T/C: 41.2%
[7]
  viability, T/C: 99%
[8]
  viability, T/C: 97%
[9]
  viability, T/C: 90.5%
[10]
  viability, T/C: 82.3%
[11]
  viability, T/C: 57.7%
[12]
  viability, T/C: 40.5%
[13]
  viability, T/C: 92%
[14]
  viability, T/C: 97.8%
[15]
  viability, T/C: 83.6%
[16]
  viability, T/C: 65.7%
[17]
  viability, T/C: 66.5%
[18]
  viability, T/C: 36.2%
[19]
  viability, T/C: 76.1%
[20]
  viability, T/C: 71.1%
[21]
  viability, T/C: 82.8%
[22]
  viability, T/C: 68.5%
[23]
  viability, T/C: 51%
[24]
  viability, T/C: 34.3%
[25]
  viability, T/C: 47.5%
[26]
  viability, T/C: 46.3%
[27]
  viability, T/C: 51.2%
[28]
  viability, T/C: 39.5%
[29]
  viability, T/C: 33.7%
[30]
  viability, T/C: 28.3%
[31]
  viability, T/C: 72.4%
[32]
  viability, T/C: 75.6%
[33]
  viability, T/C: 62.6%
[34]
  viability, T/C: 63.4%
[35]
  viability, T/C: 52.9%
[36]
  viability, T/C: 32.8%
